The subject of data set [1] is Aspergillus terreus. Kind of data set: Antifungal activity against Aspergillus terreus CDC 317 after 48 hrs. Format: functional. Conditions: CDC 317, 48 h.
Data set [2] deals with Vero. Kind of data set: Cytotoxicity against african green monkey Vero cells after 48 hrs by MTT assay. The format is cell-based. Conditions: Chlorocebus sabaeus.
A short description of data set [3]: Selectivity index, ratio of IC50 for african green monkey Vero cells to IC50 for Trichophyton rubrum ATCC 28188. Format: toxicity, cell-based. Conditions: read-out: Ratio IC50.
The subject of data set [4] is Trichophyton rubrum. Nature of the data set: Antifungal activity against Trichophyton rubrum ATCC 28188 after 6 days. Conditions: ATCC 28188, 144 h. Format: functional.
Data set [5] relates to Trichophyton mentagrophytes. Nature of the data set: Antifungal activity against Trichophyton mentagrophytes ATCC 24198 after 6 days. The format is functional. Conditions: ATCC 24198, 144 h.
Data set [6] concerns Fusarium oxysporum. Nature of the data set: Antifungal activity against Fusarium oxysporum ATCC 48112 after 48 hrs. Format: functional. Conditions: ATCC 48112, 48 h.
The subject of data set [7] is Aspergillus niger. Nature of the data set: Antifungal activity against Aspergillus niger ATCC 16404 after 48 hrs. Conditions: ATCC 16404, 48 h. Format: functional.
Data set [8] relates to Aspergillus flavus. Kind of data set: Antifungal activity against Aspergillus flavus ATCC 204304 after 48 hrs. The format is functional. Conditions: ATCC 204304, 48 h.
Data set [9] concerns Aspergillus fumigatus. Kind of data set: Antifungal activity against Aspergillus fumigatus ATCC 204305 after 48 hrs. Format: functional. Conditions: ATCC 204305, 48 h.
For data set [10], the system named is Candida albicans. Nature of the data set: Antifungal activity against Candida albicans ATCC 90028 after 24 hrs. The format is functional. Conditions: ATCC 90028, 24 h.
Data set [11] relates to Candida albicans. Kind of data set: Antifungal activity against Candida albicans ATCC 10231 after 24 hrs. The format is functional. Conditions: ATCC 10231, 24 h.
Data set [12] concerns Pichia kudriavzevii. Kind of data set: Antifungal activity against Candida krusei ATCC 6258 after 24 hrs. Format: functional. Conditions: ATCC 6258, 24 h.
Data set [13] has as its system Clavispora lusitaniae. Nature of the data set: Antifungal activity against Candida lusitaniae ATCC 200951 after 24 hrs. Conditions: ATCC 200951, 24 h. The format is functional.
The subject of data set [14] is Candida tropicalis. Kind of data set: Antifungal activity against Candida tropicalis ATCC 200956 after 24 hrs. The format is functional. Conditions: ATCC 200956, 24 h.
In data set [15] the test system is Candida parapsilosis. Kind of data set: Antifungal activity against Candida parapsilosis ATCC 22019 after 24 hrs. Conditions: ATCC 22019, 24 h. Format: functional.
The subject of data set [16] is Candida tropicalis. Nature of the data set: Antifungal activity against Candida tropicalis CECT 11901 after 24 hrs. Conditions: CECT 11901, 24 h.
Data set [17] can be described thus: Selectivity index, ratio of IC50 for african green monkey Vero cells to IC50 for Trichophyton mentagrophytes ATCC 24198. The format is toxicity, cell-based. Conditions: read-out: Ratio IC50.
Data set [18] in a line: Selectivity index, ratio of IC50 for african green monkey Vero cells to IC50 for Candida krusei ATCC 6258. Format: toxicity, cell-based. Conditions: read-out: Ratio IC50.
For data set [19], the system named is Candida parapsilosis. Nature of the data set: Antifungal activity against Candida parapsilosis ATCC 22019 at > MIC up to 24 hrs by time kill study. The format is functional, organism-based.

The text below walks through data of ChEMBL document CHEMBL2417537, “Synthesis and antifungal activity of terpenyl-1,4-naphthoquinone and 1,4-anthracenedione derivatives” (Eur J Med Chem, 2013).

In brackets after ≈: the same amount, converted by molar mass. Activity calls are given as the source filed them. The rule behind the calls is not given here. Where only a bound is given, the exact number is not on record here.

The MIC90 is an inhibitory concentration at the 90% level, which refers to growth in some studies and to a panel of isolates in others. What is called IC50 is the concentration that inhibits the measured activity by half. As for `CCNC1=CC(=O)c2cc3c(cc2C1=O)C(C)(C)CCC3`, the MIC90 in [1] was over 32 µg/mL; in [4], 3.2 µg/mL (≈ 11.3 µM); in data set [5], 5 µg/mL (≈ 17.6 µM); in data set [6] it was over 32 µg/mL; in [7] it was over 32 µg/mL; in data set [8], over 32 µg/mL. Further, the MIC90 in data set [9], in [10], in [11], in [12], in data set [13] and in data set [14] was over 32 µg/mL throughout. Besides, the MIC90 in data set [15] and in data set [16] was over 32 µg/mL in each case. In [2], this molecule showed an IC50 of 35.6 µg/mL (≈ 126 µM). Also, the selectivity ratio in [3] was found to be 11.1.
With `CC(C)=CCCc1ccc2c(c1)C(=O)C(Cl)=C(NCc1ccccc1)C2=O`, the MIC90 in [1] was over 32 µg/mL; in data set [4], 22.6 µg/mL (≈ 59.5 µM); in [5], over 32 µg/mL; in data set [6], over 32 µg/mL; in [7], over 32 µg/mL; in data set [8] it was over 32 µg/mL. Besides, the MIC90 in data set [9], in [10], in data set [11], in [12], in data set [13] and in [14] was over 32 µg/mL throughout. In addition, the MIC90 in data set [15] and in [16] was over 32 µg/mL each time. In data set [2], the IC50 came out at 55.9 µg/mL (≈ 147 µM).
Turning to `Cc1ccc2[nH]c3c(c2c1)C(=O)c1ccc(CCCC(C)C)cc1C3=O`, the MIC90 in [1], in data set [4], in data set [5], in data set [6], in data set [7] and in [8] was over 32 µg/mL in each case. Further, the MIC90 in data set [9], in data set [10], in [11], in data set [12], in [13] and in [14] was over 32 µg/mL in each case. Further, the MIC90 in data set [15] and in [16] was over 32 µg/mL in each case. The molecule further gave an IC50 in data set [2] of 55.2 µg/mL (≈ 160 µM).
With `CC1(C)CCCc2cc3c(cc21)C(=O)C=CC3=O`, the MIC90 is over 32 µg/mL in [1]; 4 µg/mL (≈ 16.6 µM) in data set [4]; 1.3 µg/mL (≈ 5.41 µM) in data set [5]; over 32 µg/mL in data set [6]; over 32 µg/mL in [7]; over 32 µg/mL in data set [8]. Also, the MIC90 in [9] is over 32 µg/mL; in [10] it was 22.6 µg/mL (≈ 94 µM); in [11], 18 µg/mL (≈ 74.9 µM); in data set [12], 4 µg/mL (≈ 16.6 µM); in data set [13], 5 µg/mL (≈ 20.8 µM); in data set [14], 5 µg/mL (≈ 20.8 µM). The MIC90 was 4.8 µg/mL (≈ 20 µM) in data set [15] and 12.7 µg/mL (≈ 52.9 µM) in data set [16]. In data set [2], this molecule had an IC50 of 8.6 µg/mL (≈ 35.8 µM). The selectivity ratio in data set [17] was 6.6; in data set [18], 2.2.
On to `CC(C)CCCc1ccc2c(c1)C(=O)C(Br)=C(Br)C2=O`, for which the MIC90 is over 32 µg/mL in [1]; 32 µg/mL (≈ 80 µM) in data set [4]; over 32 µg/mL in data set [5]; over 32 µg/mL in [6]; over 32 µg/mL in data set [7]; 32 µg/mL (≈ 80 µM) in data set [8]. Further, the MIC90 in data set [9], in data set [10], in [11], in data set [12], in [13] and in [14] was over 32 µg/mL each time. Besides, the MIC90 in data set [15] and in data set [16] was over 32 µg/mL each time. In addition, the IC50 in data set [2] was at most 25 µg/mL.
With `COc1cc(NC2=C(Cl)C(=O)c3cc4c(cc3C2=O)C(C)(C)CCC4)cc(OC)c1OC`, the MIC90 in data set [1], in [4], in data set [5], in data set [6], in data set [7] and in data set [8] was over 32 µg/mL throughout. Also, the MIC90 in [9], in [10], in data set [11], in data set [12], in data set [13] and in data set [14] was over 32 µg/mL each time. The MIC90 in data set [15] and in data set [16] was over 32 µg/mL each time. The molecule also gave an IC50 in [2] of at most 25 µg/mL.
As for `CCOC1=C(OCC)C(=O)c2cc3c(cc2C1=O)CCCC3(C)C`, the MIC90 in [1], in [4], in [5], in data set [6], in data set [7] and in data set [8] was over 32 µg/mL each time. Moreover, the MIC90 in [9], in [10], in [11], in data set [12], in data set [13] and in data set [14] was over 32 µg/mL throughout. The MIC90 in data set [15] and in [16] was over 32 µg/mL each time. In data set [2], this molecule returned an IC50 of at most 25 µg/mL.
Consider `CN(C/C=C/C#CC(C)(C)C)Cc1cccc2ccccc12` [TERBINAFINE], for which the IC50 in data set [2] stood at 30.9 µg/mL (≈ 106 µM). Besides, in data set [3], the selectivity ratio is 386. Moreover, the MIC90 in [4] stood at 0.08 µg/mL (≈ 0.275 µM); in [5], 0.03 µg/mL (≈ 0.103 µM).
As to `Cc1c2c(nc3ccccc13)C(=O)c1cc(CCCC(C)C)ccc1C2=O`, the MIC90 in [1], in data set [4], in data set [5], in data set [6], in data set [7] and in [8] was over 32 µg/mL in each case. The MIC90 in data set [9], in data set [10], in data set [11], in [12], in data set [13] and in [14] was over 32 µg/mL in each case. Also, the MIC90 in [15] and in data set [16] was over 32 µg/mL throughout. Moreover, the IC50 in data set [2] was found to be 115 µg/mL (≈ 322 µM).
For `CC(C)=CCCc1ccc2c(c1)C(=O)C=CC2=O`, the MIC90 in data set [1], in [4], in data set [5], in data set [6], in data set [7] and in data set [8] was over 32 µg/mL each time. Further, the MIC90 in [9], in data set [10], in data set [11], in data set [12], in [13] and in data set [14] was over 32 µg/mL throughout. The MIC90 in [15] and in [16] was over 32 µg/mL throughout. In addition, the IC50 in data set [2] was 109 µg/mL (≈ 454 µM).
Take `COc1ccc(SC2=CC(=O)c3ccc(CCCC(C)C)cc3C2=O)cc1`: the MIC90 in data set [1], in [4], in data set [5], in data set [6], in data set [7] and in [8] was over 32 µg/mL each time. The MIC90 in data set [9], in data set [10], in [11], in data set [12], in [13] and in data set [14] was over 32 µg/mL each time. Also, the MIC90 in data set [15] and in [16] was over 32 µg/mL throughout.
As to `Cc1cc(C)c2c3c(oc2c1)C(=O)c1cc(CCCC(C)C)ccc1C3=O`, the MIC90 in [1], in data set [4], in data set [5], in data set [6], in [7] and in [8] was over 32 µg/mL throughout. In addition, the MIC90 in data set [9], in data set [10], in data set [11], in [12], in data set [13] and in data set [14] was over 32 µg/mL in each case. Besides, the MIC90 in data set [15] and in data set [16] was over 32 µg/mL in each case. The molecule also registered a half-inhibitory concentration (IC50) in data set [2] of 35.4 µg/mL (≈ 98.2 µM).
Take `CCC(C)n1ncn(-c2ccc(N3CCN(c4ccc(OCC5COC(Cn6cncn6)(c6ccc(Cl)cc6Cl)O5)cc4)CC3)cc2)c1=O` (stereo not drawn) [ITRACONAZOLE]: in data set [19], the result was Active. In [2], this molecule yielded an IC50 of over 50 µg/mL. Moreover, the MIC90 in data set [8] was 0.1 µg/mL (≈ 0.142 µM); in data set [9] it was 0.2 µg/mL (≈ 0.283 µM); in data set [12], 0.5 µg/mL (≈ 0.709 µM); in data set [15] it was 0.25 µg/mL (≈ 0.354 µM). Further, the selectivity ratio in data set [18] is over 100.
With `COc1ccc(NC2=C(Br)C(=O)c3cc(CCCC(C)C)ccc3C2=O)cc1`, the MIC90 in data set [1], in data set [4], in [5], in data set [6], in [7] and in [8] was over 32 µg/mL each time. For the same molecule, the MIC90 in data set [9], in [10], in data set [11], in data set [12], in data set [13] and in [14] was over 32 µg/mL each time. Moreover, the MIC90 in [15] and in data set [16] was over 32 µg/mL each time. Moreover, in data set [2], the IC50 came to 58.5 µg/mL (≈ 132 µM).
